Reference: patent US20220081435A1, “ANDROGEN RECEPTOR PROTEIN DEGRADERS” (THE REGENTS OF THE UNIVERSITY OF MICHIGAN, priority 2019, published 2022)

Experiments:
[1] = test system: AR-regulated gene expression (PSA, TMPRSS2, FKBP5, ERG); test: Suppression of AR-regulated gene expression in VCaP cells (qRT-PCR); type: cell-based
Method: (§1) Quantitative Real-Time Polymerase Chain Reaction (qRT-PCR). Real-time PCR was performed using QuantStudio 7 Flex Real-Time PCR System as described previously.^43,44 RNA was purified using the Qiagen RNase-Free DNase set, then after quantification, the extracted RNA was converted to cDNA using High Capacity RNA-to-cDNA Kit from Applied Biosystems (Thermo Fisher Scientific). The levels of AR, TMPRSS2, FKBP5, PSA(KLK3) and GAPDH were quantified using TaqMan Fast Advanced Master Mix from Applied Biosystems. The level of gene expression was evaluated using comparative CT method, which compares the CT value to GAPDH (ACT) and then to vehicle control (ΔΔCT).

LNCaP cells = test: Cell growth inhibition in LNCaP cells (WST-8 assay); type: cell-based
Method: LNCaP were treated with different compounds in charcoal stripped medium in the presence of 0.1 nM of AR agonist R1881 for 7 days. Cell viability was determined by a WST-8 assay.
(§2) Cell lines and Cell Culture: All the LNCaP, VCaP and 22RV1 cells used were purchased from American Type Culture Collection (ATCC). LNCaP and 22RV1 cells were grown in RPMI 1640 (Invitrogen), VCaP cells were grown in DMEM with Glutamax (Invitrogen). All of the cells were supplemented with 10% fetal bovine serum (Invitrogen) at 37° C. in a humidified 5% CO2 incubator.

[2] = target: T1, AR protein in VCaP xenograft tumor tissue (Homo sapiens, UniProt P10275); test: Pharmacodynamics in VCaP xenograft tumor tissue in mice (immunoblotting); type: in vivo; conditions: SCID mice, single dose 50 mg/kg IP
T1 construct: resected control and treated VCaP xenograft tumor tissues were ground into powder in liquid nitrogen and lysed; from tissue; host or cells: VCaP xenograft tumor tissue from SCID mice
T1 sequence (P10275 1-920): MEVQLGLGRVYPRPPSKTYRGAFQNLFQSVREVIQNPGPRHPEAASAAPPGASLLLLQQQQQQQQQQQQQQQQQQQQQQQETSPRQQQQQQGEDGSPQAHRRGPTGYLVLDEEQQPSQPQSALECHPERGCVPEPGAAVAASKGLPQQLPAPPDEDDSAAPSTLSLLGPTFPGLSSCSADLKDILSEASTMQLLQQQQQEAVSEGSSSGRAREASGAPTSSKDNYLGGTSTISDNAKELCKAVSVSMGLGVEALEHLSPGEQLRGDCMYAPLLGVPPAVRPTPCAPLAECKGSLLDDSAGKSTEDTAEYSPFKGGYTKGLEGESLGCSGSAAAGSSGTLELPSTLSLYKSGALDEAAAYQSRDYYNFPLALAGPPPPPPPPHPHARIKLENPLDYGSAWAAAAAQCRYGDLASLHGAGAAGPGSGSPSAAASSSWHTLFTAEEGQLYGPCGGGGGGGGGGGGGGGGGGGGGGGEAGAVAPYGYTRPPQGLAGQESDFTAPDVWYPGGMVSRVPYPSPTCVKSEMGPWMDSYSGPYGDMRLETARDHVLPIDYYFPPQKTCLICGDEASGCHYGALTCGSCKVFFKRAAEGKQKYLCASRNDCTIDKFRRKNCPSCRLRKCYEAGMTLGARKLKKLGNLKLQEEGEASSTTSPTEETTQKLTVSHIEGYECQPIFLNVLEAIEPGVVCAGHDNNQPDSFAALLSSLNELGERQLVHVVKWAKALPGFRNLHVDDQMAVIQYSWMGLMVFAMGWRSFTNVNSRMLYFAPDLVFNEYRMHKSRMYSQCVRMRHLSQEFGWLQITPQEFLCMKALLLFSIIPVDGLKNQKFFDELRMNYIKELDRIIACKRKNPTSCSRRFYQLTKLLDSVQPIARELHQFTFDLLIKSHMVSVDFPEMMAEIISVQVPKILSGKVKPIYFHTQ
Method: FIG. 9 is an image of an immunoblotting analysis of a pharmacodynamics (PD) study of AR degrader 34 (ARD-69) in VCaP tumor tissue in mice. SCID mice bearing xenograft VCaP tumors were treated with a single dose of 34 (ARD-69) (IP, 50 mg/kg). Tumor tissues were harvested at the indicated time points for immunoblotting.
Pharmacodynamics Studies in the VCaP Xenograft Models in Mice. All animal experiments were performed under the guidelines of the University of Michigan Committee for Use and Care of Animals and using an approved animal protocol (PI, Shaomeng Wang). Xenograft tumors were established by injecting 5×10^6 VCaP cells in 50% Matrigel subcutaneously on the dorsal side of severe combined immunodeficient (SCID) mice, obtained from Charles River, one tumor per mouse. When tumors reached ˜100 mm^3, mice were randomly assigned to treatment and vehicle control groups. Animals were monitored daily for any signs of toxicity and weighed 2-3 times per week during the treatment period and at least weekly after the treatment ended. For pharmacodynamics analysis, resected control and treated VCaP xenograft tumor tissues were ground into powder in liquid nitrogen and lysed in CST lysis buffer with halt proteinase inhibitors. Twenty micrograms of whole tumor clarified lysates were separated on 4-20% or 4-12% Novex gels. Western blots were performed as detailed in the previous section.

AR protein [3] = target: T2, AR protein (Homo sapiens, UniProt P10275); test: AR protein degradation in VCaP cells (Western blotting); type: cell-based
T2 construct: host or cells: VCaP
T2 sequence (P10275 1-920): T1 sequence (P10275 1-920)
Method: as §2
(§3) Western Blotting. Treated cells were lysed by RIPA buffer supplemented with protease and phosphatase inhibitors. The cell lysates were separated by 4-12% SDS-PAGE gels and blotted into PVDF membranes. Software ImageJ was used to quantify the percentage of AR degradation. The net protein bands and loading controls are calculated by deducting the background from the inverted band value. The final relative quantification values are the ratio of net band to net loading control.

[4] = test system: AR-regulated gene expression (PSA, TMPRSS2, FKBP5); test: Suppression of AR-regulated gene expression in LNCaP cells (qRT-PCR); type: cell-based
Method: as §1

VCaP cells = test: Cell growth inhibition in VCaP cells (WST-8 assay); type: cell-based
Method: VCaP were treated with different compounds in charcoal stripped medium in the presence of 0.1 nM of AR agonist R1881 for 7 days. Cell viability was determined by a WST-8 assay.
as §2

AR protein [5] = test: AR protein degradation in 22RV1 cells (Western blotting); type: cell-based
Method: as §2, §3

[6] = charcoal stripped medium, 0.1 nM R1881, 7 days

Cc1ncsc1-c1ccc([C@H](CC(=O)N2CCC(N3CCC(C#Cc4ccc(C(=O)NC5C(C)(C)C(Oc6ccc(C#N)c(Cl)c6)C5(C)C)cc4)CC3)CC2)NC(=O)[C@@H]2C[C@@H](O)CN2C(=O)[C@@H](NC(=O)C2(F)CC2)C(C)(C)C)cc1 (stereo partly drawn) [Compound 34, (2S,4R)—N—((S)-3-(4-((4-(((1r,3r)-3-(3-Chloro-4-cyanophenoxy)-2,2,4,4-tetramethyl-cyclobutyl)carbamoyl)phenyl)ethynyl)-[1,4′-bipiperidin]-1′-yl)-1-(4-(4-methylthiazol-5-yl)phenyl)-3-oxopropyl)-1-((S)-2-(1-fluorocyclopropane-1-carboxamido)-3,3-dimethylbutanoyl)-4-hydroxypyrrolidine-2-carboxamide]
Potency relative to AR antagonist 6 in suppressing AR-regulated gene transcription [1]: > 100 times
Reduction of mRNA level of both PSA and TMPRSS2 genes ([1]; 10 nM): > 50%
ERG gene expression ([1]; dose-dependent): suppresses
Expression of PSA, TMPRSS2 and FKBP5 genes ([1]; dose-dependent, data not shown): effectively suppressed
Potency relative to enzalutamide (4) and compound 6 in cell growth inhibition (LNCaP cells): > 100 times
IC50 (LNCaP cells; [6]): 0.25 nM
Persistence of AR protein reduction [2]: at least 48 h
Persistence of PSA protein reduction [2]: 24 to 48 h
Level of PSA protein in tumor tissue ([2]; at the 3 h time-point): effectively reduced
Level of AR protein in tumor tissue ([2]; starting at 3 h): effectively reduced
AR degradation (AR protein [3]; 10 nM, 24 h treatment): > 95%
Time to effective reduction of AR protein level (AR protein [3]; 100 nM): ≤ 2 h
AR depletion with a 4 h treatment (AR protein [3]; 100 nM, 4 h): near-complete AR depletion
DC50 (AR protein [3]; 24 h treatment, read-out: DC50 (drug concentration that results in 50% protein degradation)): 0.76 nM
AR degradation after pretreatment with AR antagonist (6), VHL-d, MLN4924 or MG132 (AR protein [3]; data not shown): effectively blocked
Potency relative to AR antagonist 6 in suppressing AR-regulated gene transcription [4]: > 100 times
Reduction of mRNA level of both PSA and TMPRSS2 genes ([4]; 10 nM): > 50%
Expression of PSA, TMPRSS2 and FKBP5 genes ([4]; dose-dependent, data not shown): effectively suppressed
Potency relative to enzalutamide (4) and compound 6 in cell growth inhibition (VCaP cells): > 100 times
IC50 (VCaP cells; [6]): 0.34 nM
AR degradation (AR protein [5]; 22RV1, 1 μM, 24 h treatment): near complete degradation
DC50 (AR protein [5]; 22RV1, 24 h treatment, read-out: DC50 (drug concentration that results in 50% protein degradation)): 10.4 nM
